In ChEMBL document CHEMBL1153997, “Discovery of oxazolo[4,5-b]pyridines and related heterocyclic analogs as novel SIRT1 activators” (Bioorg Med Chem Lett, 2009):

Columns and labels:
[1] = biological target: T1, NAD-dependent protein deacetylase sirtuin-1 (Homo sapiens) (UniProt Q96EB6); test: Activation of human SIRT1 expressed in Escherichia coli BL21 (DE3) assessed as concentration required to increase 50% enzyme activity by fluorescence polarization assay
T1 sequence (whole entry): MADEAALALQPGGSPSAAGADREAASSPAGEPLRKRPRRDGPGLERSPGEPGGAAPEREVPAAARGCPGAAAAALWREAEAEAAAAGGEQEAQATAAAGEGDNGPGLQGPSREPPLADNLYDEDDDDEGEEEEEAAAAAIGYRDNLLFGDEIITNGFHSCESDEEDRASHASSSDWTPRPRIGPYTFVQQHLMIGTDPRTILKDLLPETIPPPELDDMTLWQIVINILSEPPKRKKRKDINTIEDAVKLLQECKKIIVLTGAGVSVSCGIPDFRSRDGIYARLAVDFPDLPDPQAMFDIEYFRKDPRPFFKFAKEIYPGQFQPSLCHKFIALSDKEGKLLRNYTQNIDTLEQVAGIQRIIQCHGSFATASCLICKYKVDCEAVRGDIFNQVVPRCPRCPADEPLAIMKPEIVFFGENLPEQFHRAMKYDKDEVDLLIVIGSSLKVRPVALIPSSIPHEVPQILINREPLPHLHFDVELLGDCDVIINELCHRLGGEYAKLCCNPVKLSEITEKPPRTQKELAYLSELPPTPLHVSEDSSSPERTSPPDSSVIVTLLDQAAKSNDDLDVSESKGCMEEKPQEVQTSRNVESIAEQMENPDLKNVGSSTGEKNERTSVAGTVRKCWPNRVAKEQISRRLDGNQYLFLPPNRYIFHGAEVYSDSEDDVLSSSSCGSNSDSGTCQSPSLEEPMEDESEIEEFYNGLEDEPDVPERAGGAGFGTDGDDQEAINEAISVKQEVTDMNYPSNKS

[2] = biological target: T1, NAD-dependent protein deacetylase sirtuin-1 (Homo sapiens); test: Activation of human SIRT1 expressed in Escherichia coli BL21 (DE3) assessed as maximum activation of enzyme activity by fluorescence polarization assay

SMILES | EC1.5 [1] [µM] | max activation [2] [%]
CN(C)c1cccc(C(=O)Nc2cccc(-c3nc4ncccc4o3)c2)c1 | 25 | 207
COc1cc(C)ccc1C(=O)Nc1ccc(-c2nc3ncccc3[nH]2)cc1 | 2.3 | 150
Oc1ccc(/C=C/c2cc(O)cc(O)c2)cc1 |  | 200
COc1ccc(C(=O)Nc2ccc(-c3nc4ncccc4[nH]3)cc2)cc1OC | 1.6 | 180
COc1ccc(C(=O)Nc2cccc(-c3nc4ncccc4o3)c2)cc1OC | 6 | 240
COc1ccc(C(=O)Nc2ccccc2-c2nc3ccccc3[nH]2)cc1OC | 0.4 | 595
O=C(Nc1ccc(CN2CCNCC2)cc1-c1nc2ccccc2[nH]1)c1cnc2ccccc2n1 | 0.4 | 820
COc1ccc(C(=O)Nc2cccc(-c3nc4ncccc4[nH]3)c2)cc1OC | 1.4 | 324
COc1ccc(C(=O)Nc2cc(CN(C)C)cc(-c3nc4ncccc4o3)c2)cc1OC | 1.1 | 200
CN(C)c1cccc(C(=O)Nc2ccccc2-c2nc3ncccc3o2)c1 | 4.4 | 209
COc1ccc(C(=O)Nc2ccccc2-c2nc3ncccc3[nH]2)cc1OC | 0.5 | 270
COc1ccc(C(=O)Nc2cc(CN3CCNCC3)cc(-c3nc4ncccc4o3)c2)cc1OC | 1.1 | 240
COc1ccc(C(=O)Nc2cccc(-c3nc4ncccc4[nH]3)c2)c(OC)c1 | 0.5 | 232
COc1cc(C)ccc1C(=O)Nc1ccccc1-c1nc2ncccc2[nH]1 | 4.1 | 250
COc1ccc(C(=O)Nc2cc(CN3CCNCC3)cc(-c3nc4ncccc4o3)c2)c(OC)c1 | 0.5 | 220
O=C(Nc1ccccc1-c1nc2ccccc2[nH]1)c1cnc2ccccc2n1 | 0.3 | 253

The next lines start with the values.

EC1.5 [1] [µM] | max activation [2] [%] | SMILES
0.9 | 170 | COc1ccc(C(=O)Nc2ccccc2-c2nc3ncccc3o2)cc1OC
> 100 |  | CN(C)c1cccc(C(=O)Nc2ccc(-c3nc4ncccc4o3)cc2)c1
1.8 | 330 | CN(C)CCNC(=O)c1cc(NC(=O)c2cccc(N(C)C)c2)cc(-c2nc3ncccc3o2)c1
1.7 | 180 | COc1cc(OC)cc(C(=O)Nc2ccccc2-c2nc3ccccc3[nH]2)c1
0.7 | 230 | CN(C)c1ccc(C(=O)Nc2ccccc2-c2nc3ncccc3[nH]2)cc1
0.9 | 273 | O=C(Nc1ccccc1-c1nc2ncccc2[nH]1)c1ccc(N2CCOCC2)cc1
> 100 |  | COc1ccc(C(=O)Nc2ccc(-c3nc4ncccc4o3)cc2)cc1OC
0.7 | 240 | COc1ccc(C(=O)Nc2cc(C(=O)NCCN(C)C)cc(-c3nc4ncccc4o3)c2)cc1OC
0.5 | 314 | COc1ccc(C(=O)Nc2ccccc2-c2nc3ccccc3[nH]2)cc1CN1CCOCC1
